# In patent US20110009399A1, “ORGANIC COMPOUNDS” (priority 2007, published 2011):
# Target: T1, renin (Homo sapiens, UniProt P00797)
# T1 construct: This test measures the formation of angiotensin I in human plasma; from tissue; host or cells: human plasma
# T1 sequence (P00797 67-406): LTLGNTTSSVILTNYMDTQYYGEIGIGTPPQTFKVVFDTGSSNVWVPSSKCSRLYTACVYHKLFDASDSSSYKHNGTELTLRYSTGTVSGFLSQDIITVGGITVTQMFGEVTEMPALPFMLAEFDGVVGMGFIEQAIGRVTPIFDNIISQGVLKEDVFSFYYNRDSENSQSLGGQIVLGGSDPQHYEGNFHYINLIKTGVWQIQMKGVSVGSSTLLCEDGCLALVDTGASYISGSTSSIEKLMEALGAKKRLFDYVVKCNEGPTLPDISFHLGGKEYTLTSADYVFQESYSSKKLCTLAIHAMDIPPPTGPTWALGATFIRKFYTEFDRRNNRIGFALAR
# Assay: in vitro test of Nussberger et al.: formation of angiotensin I in human plasma, radioimmunoassay
# Type: biochemical
# Conditions: values given as 'in the range of about', read-out: IC50, inhibition of the formation of angiotensin I
# Description: The effect of renin inhibitors is detected inter alia experimentally by means of in vitro tests where the reduction in the formation of angiotensin I is measured in various systems (human plasma, purified human renin together with synthetic or natural renin substrate). The following in vitro test of Nussberger et al. (1987) J. Cardiovascular Pharmacol., Vol. 9, pp. 39-44, is used inter alia. This test measures the formation of angiotensin I in human plasma. The amount of angiotensin I formed is determined in a subsequent radioimmunoassay. The effect of inhibitors on the formation of angiotensin I is tested in this system by adding various concentrations of these substances. […] The compounds of the present invention show inhibitory effects in the in vitro systems at minimal concentrations of about 10^−6 to about 10^−10 mol/l.
row,IC50 [nM],Structure (SMILES)
1,1 to 20,"COCCCN1CCOc2ccc(CO[C@H]3CNCC[C@@]34OCc3cc(COC[C@@H](C)COC)ccc34)cc21 [Example 7, (1S,3′S)-5-({[(2S)-3-methoxy-2-methylpropyl]oxy}methyl)-3′-{[4-(3-methoxy-propyl)-3,4-dihydro-2H-1,4-benzoxazin-6-yl]methoxy}-3H-spiro[2-benzofuran-1,4′-piperidine]]"
2,1 to 20,"CCOC(C)COCc1ccc2c(c1)OCCOC21CCNCC1OCc1ccc2c(c1)N(CCCOC)CCO2 [Example 14, (3′S,5S)-8-({[(2R)-2-Ethoxypropyl]oxy}methyl)-3′-{[4-(3-methoxypropyl)-3,4-dihydro-2H-1,4-benzoxazin-6-yl]methoxy}-2,3-dihydrospiro[1,4-benzo-dioxepine-5,4′-piperidine]]"
3,1 to 20,"CCO[C@H](C)COCc1ccc2c(c1)CCO[C@@]21CCNC[C@@H]1OCc1ccc2c(c1)N(CCCOC)CCO2 [Example 2, (1S,3′S)-6-({[(2R)-2-Ethoxypropyl]oxy}methyl)-3′-{[4-(3-methoxypropyl)-3,4-dihydro-2H-1,4-benzoxazin-6-yl]methoxy}-3,4-dihydrospiro[isochromene-1,4′-piperidine]]"
